ChEMBL document CHEMBL1201862, “PubChem BioAssay data set” (2004)
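1) Cells in 96-well plates. 2) Compound, 48 h, 5 concentrations. 3) Linear interpolation between surrounding doses. 4) Unreached endpoint = highest concentration. GI50: concentration for 50% inhibition of growth.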 Activity calls are given as the source filed them. Rule as the data show it: active = GI50 up to about 1.1 µM and inactive = higher.

Assays:
Assay in all cases: DTP human tumour cell line panel, 48 h
HL-60 = tested on: HL-60
LOX IMVI = tested on: LOX IMVI
K562 = tested on: K562
NCI-H226 = tested on: NCI-H226
SR = tested on: SR
M14 = tested on: M14
SF-539 = tested on: SF-539
RPMI-8226 = tested on: RPMI-8226
SK-MEL-28 = tested on: SK-MEL-28
SNB-75 = tested on: SNB-75
OVCAR-3 = tested on: OVCAR-3
CAKI-1 = tested on: CAKI-1
PC-3 = tested on: PC-3
TK-10 = tested on: TK-10
UACC-257 = tested on: UACC-257
OVCAR-4 = tested on: OVCAR-4
RXF 393 = tested on: RXF 393
ACHN = tested on: ACHN
SNB-19 = tested on: SNB-19
SK-OV-3 = tested on: SK-OV-3

Measured: GI50

CN(C)c1ccc(/C=N/c2ccc(-c3nc4ccccc4[nH]3)cc2)cc1
inactive: HL-60 24.7 µM | LOX IMVI 51.5 µM | K562 35 µM | NCI-H226 > 100 µM | SR 12.9 µM | M14 > 100 µM | SF-539 90.4 µM | RPMI-8226 36.1 µM | SK-MEL-28 > 100 µM | SNB-75 33.7 µM | OVCAR-3 71.1 µM | CAKI-1 > 100 µM | PC-3 53.6 µM | TK-10 > 100 µM | UACC-257 > 100 µM | OVCAR-4 35.9 µM | RXF 393 24.2 µM | ACHN 59.3 µM | SNB-19 40 µM | SK-OV-3 > 100 µM
